Source: the NIST ThermoML archive (doi:10.1016/j.jct.2006.04.005)

Experiments:
[1] = 303.15 K, 101 kPa, Liquid; for viscosity: Capillary tube (Ostwald / Ubbelohde) method; for mass density: Pycnometric method
[2] = xn = mol fraction of the nth substance listed; conditions: 303.15 K, 101 kPa, Liquid; for viscosity: Capillary tube (Ostwald / Ubbelohde) method; for excess molar volume: Direct dilatometry; for mass density: Pycnometric method

Cc1cccc(Cl)c1 [3-chlorotoluene]
[1]
Conditions | mass density [kg/m3] | speed of sound [m/s] | viscosity [mPa·s]
– | 1065.21 | 1280 | 0.78

Clc1ccc(Cl)c(Cl)c1 [1,2,4-trichlorobenzene]
[1]
Conditions | mass density [kg/m3] | speed of sound [m/s] | viscosity [mPa·s]
– | 1442.14 | 1260 | 1.613

Cc1ccc(Cl)cc1 [4-chlorotoluene]
[1]
Conditions | mass density [kg/m3] | speed of sound [m/s] | viscosity [mPa·s]
– | 1060.54 | 1271 | 0.9

Cc1ccc(Cl)cc1 [4-chlorotoluene] + C[S+](C)[O-]
[2]
Conditions | excess molar volume [m3/mol] | mass density [kg/m3] | speed of sound [m/s] | viscosity [mPa·s]
x2 = 0 | – | 1060.54 | 1271 | 0.9
x2 = 0.0768 | 1.3e-08 | – | 1292 | 1.039
x2 = 0.1105 | 2.3e-08 | – | 1302 | 1.094
x2 = 0.1546 | 2.9e-08 | – | 1312 | 1.16
x2 = 0.2045 | 3.5e-08 | – | 1327 | 1.232
x2 = 0.2543 | 4.1e-08 | – | 1340 | 1.287
x2 = 0.3111 | 4.8e-08 | – | 1357 | 1.351
x2 = 0.3704 | 5.2e-08 | – | 1372 | 1.41
x2 = 0.4904 | 5.7e-08 | – | 1401 | 1.521
x2 = 0.5174 | 5.7e-08 | – | 1410 | 1.544
x2 = 0.554 | 5.6e-08 | – | 1418 | 1.573
x2 = 0.6014 | 5.3e-08 | – | 1430 | 1.611
x2 = 0.7074 | 4.5e-08 | – | 1453 | 1.687
x2 = 0.761 | 3.8e-08 | – | 1465 | 1.725
x2 = 0.8214 | 3.2e-08 | – | 1467 | 1.76
x2 = 0.8906 | 2e-08 | – | 1468 | 1.78

C[S+](C)[O-] [dimethyl sulfoxide]
[1]
Conditions | mass density [kg/m3] | speed of sound [m/s] | viscosity [mPa·s]
– | 1091.35 | 1470 | 1.803

Cc1ccccc1Cl [2-chlorotoluene]
[1]
Conditions | mass density [kg/m3] | speed of sound [m/s] | viscosity [mPa·s]
– | 1072.81 | 1284 | 0.887

Cc1cccc([N+](=O)[O-])c1 [3-nitrotoluene] + C[S+](C)[O-]
[2]
Conditions | excess molar volume [m3/mol] | mass density [kg/m3] | speed of sound [m/s] | viscosity [mPa·s]
x2 = 0 | – | 1147.67 | – | 1.777
x2 = 0.1052 | 3.9e-08 | – | 2002 | 1.78
x2 = 0.1512 | 6e-08 | – | 1964 | 1.781
x2 = 0.1921 | 7.9e-08 | – | 1936 | 1.782
x2 = 0.2216 | 9.2e-08 | – | 1909 | 1.783
x2 = 0.272 | 1.14e-07 | – | 1876 | 1.784
x2 = 0.305 | 1.28e-07 | – | 1851 | 1.785
x2 = 0.3641 | 1.52e-07 | – | 1812 | 1.786
x2 = 0.4121 | 1.62e-07 | – | 1778 | 1.787
x2 = 0.4772 | 1.77e-07 | – | – | 1.789
x2 = 0.5226 | 1.83e-07 | – | 1711 | 1.79
x2 = 0.6035 | 1.75e-07 | – | 1661 | 1.792
x2 = 0.724 | 1.46e-07 | – | 1598 | 1.794
x2 = 0.8126 | 1.07e-07 | – | 1555 | 1.796
x2 = 0.8905 | 6.2e-08 | – | 1518 | 1.799
x2 = 0.9607 | 2.5e-08 | – | 1489 | 1.801

Cc1ccccc1[N+](=O)[O-] [2-nitrotoluene]
[1]
Conditions | mass density [kg/m3] | viscosity [mPa·s]
– | 1153.24 | 1.911

C[S+](C)[O-] [dimethyl sulfoxide] + Clc1ccc(Cl)c(Cl)c1
[2], x1 = 1
Conditions | mass density [kg/m3] | speed of sound [m/s]
– | 1091.35 | 1470
